From patent US4690940A, “Anti-hypertensive agents” (University of Miami, priority 1979, dated 1987)
Non-standard residues stand in square brackets, D forms with d. Residues, ends and D or L forms follow the SMILES beside them. No end group written: not given here. pGlu = O=C1CC[C@@H](C(=O)O)N1

What was measured:
ACE [1] = conditions: competitive substrates; cited from earlier work
[2] = test system: ACE purified from human urine; assay: ACE activity assay (hydrolysis of Benzoyl-GlyHisLeu), I50 determination; type: biochemical; conditions: in vitro, pH 8.0, 37° C
Description: These factors include the source of enzyme, its purity, the substrate used and its concentration, and the composition of the assay buffer. All I50 data reported herein have been performed with the same assay system and same enzyme (human urinary ACE) and with an approximately 1/2Km level of substrate and are therefore internally consistent.
ACE activity assay. […] To initiate the assay, 40 μl of enzyme and 10 μl of water or inhibitor dissolved in water were preincubated for five minutes at 37° C. […] To terminate the reaction, 1 ml of 0.1M HCl was added, following which 1 ml of ethyl acetate was added. The mixture was agitated on a rotary mixer and centrifuged briefly to separate the phases.
An aliquot, 500 μl, of the ethyl acetate layer was transferred to a liquid scintillation vial containing 10 ml of Riafluor, trademark New England Nuclear Corporation, Boston, Massachusetts. For determination of I50 values, enzyme activity in the presence of inhibitor at a series of different concentrations was compared to activity in the absence of inhibitor.

ACE [3] = conditions: disulfide formed by dimerization of SQ 14,225; believed; cited from earlier work
[4] = test system: Blood Pressure Response to 400 ng/kg of Angiotensin I; assay: Oral effectiveness: blood pressure response to angiotensin I in anesthetized rats; type: in vivo, rat; conditions: 400 ng/kg angiotensin I, before drug
Description: (§1) Rats (210-290 g body weight) were fasted overnight and then anesthetized with intraperitoneal pentobarbital, 50-60 mg/kg. Tracheostomy was performed and the animals were ventilated mechanically. A cannula was inserted into a femoral vein for injection of angiotensin I, and a second cannula was inserted into a common carotid artery for direct measurement of arterial blood pressure. Heparin, 1,000 units, was injected via the femoral vein to prevent coagulation. Blood pressure was measured with a pressure transducer connected to a polygraph. The rats were injected with 400 ng/kg of angiotensin I in 20 μl of 0.9 g % NaCl; an amount of angiotensin I sufficient to raise mean arterial blood pressure by 39 mm Hg. […] At timed intervals, the effects of 400 ng/kg of angiotensin I on mean arterial blood pressure were tested.

[5] = test system: Blood Pressure Response to 400 ng/kg of Angiotensin I; assay: Intravenous effectiveness: blood pressure response to angiotensin I in anesthetized rats; type: in vivo, rat; conditions: 400 ng/kg angiotensin I, -5 minutes
Description: as §1
At time intervals, the effects of angiotensin I, 400 ng/kg, on mean arterial blood pressure were tested.

Molecule | Km relative to angiotensin I (ACE [1]) | IC50 [2] [nM] | other results
C[C@H](NC(=O)[C@H](Cc1c[nH]c2ccccc12)NC(=O)[C@H](CCCCN)NC(=O)[C@@H]1CCC(=O)N1)C(=O)N1CCC[C@H]1C(=O)O [BPP5a, <GluLysTrpAlaPro] ([pGlu]KWAP-OH) | a lower Km than angiotensin I | – | –
C[C@H](CSC(=O)[C@H](Cc1ccccc1)NC(=O)[C@H](CCCCNC(=O)OC(C)(C)C)NC(=O)C1CCCC1)C(=O)N1CCC[C@H]1C(=O)O [Example 17] | – | 25 | –
C[C@H](CSC(=O)[C@H](Cc1ccccc1)NC(=O)[C@H](CCCCN)NC(=O)C1CCCC1)C(=O)N1CCC[C@H]1C(=O)O [Example 18, N^α -[3-(N^α -cyclopentylcarbonyl-L-lysyl-L-phenylalanylthio)2-D-methylpropanoyl]-L-proline] | – | 15 | –
C[C@H](CSSC[C@@H](C)C(=O)N1CCC[C@H]1C(=O)O)C(=O)N1CCC[C@H]1C(=O)O [disulfide] | – | – | inhibitory activity of dimer (ACE [3]): largely inactive as an inhibitor
DRVYIHPFHL [angiotensin I] | – | – | rise of mean arterial blood pressure by angiotensin I [4]: 39 mm Hg; rise of mean arterial blood pressure by angiotensin I [5]: 39 mm Hg
RPPGFSPFR [bradykinin] | a lower Km than angiotensin I | – | –
